The supplement of paper PMC10627819

Experiments:
B. subtilis 168 [1] = assay: Bliss interaction score (quartile over a dose matrix) (fitness difference); higher = more antagonism (negative = synergy)
In short: (§1)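 The Bliss score is observed fitness minus expected fitness, where the expected value is the product of single-drug fitness values inferred from combination data. Fitness is OD595 at entry into stationary phase normalised to the plate's robust no-drug mean and capped at 1. Scores are reported as quartiles spanning technical, biological and donor/recipient replicates.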

S. aureus Newman [2] = assay: as above
In short: as §1

S. pneumoniae D39V [3] = assay: as above
In short: as §1

S. aureus DSM 20231 [4] = assay: as above
In short: as §1

B. subtilis 168 [5] = assay: fitness (endpoint OD595 vs no drug) (fraction); higher = more growth
In short: (§2)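 At 37 °C, bacteria in TSB, LB Lennox or CY were grown in 384-well plates from a starting OD595 of 0.01. OD595 was measured every 30 min for 14 h, with the first reading used as background. Fitness is the optical density at the switch to stationary phase as a fraction of the robust mean of no-drug control wells, capped at 1.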

S. aureus Newman [6] = assay: as above
In short: as §2

S. pneumoniae D39V [7] = assay: as above
In short: as §2

S. aureus DSM 20231 [8] = assay: as above
In short: as §2
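For Bliss interaction score (quartile over a dose matrix) in this document: first quartile when negative (synergy) and third quartile when positive (antagonism).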
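For fitness (endpoint OD595 vs no drug) in this document: OD595 on entry to stationary phase over no-drug wells; at most 1.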

Cc1onc(-c2ccccc2)c1C(=O)N[C@@H]1C(=O)N2[C@@H]1SC(C)(C)[C@@H]2C(=O)O [Oxacillin] + C[n+]1ccc(-c2cc[n+](C)cc2)cc1 [Paraquat]
Conditions	Bliss interaction score
B. subtilis 168 [1]	-0.0872
S. aureus DSM 20231 [4]	-0.0577
S. aureus Newman [2]	-0.0522
S. pneumoniae D39V [3]	0.0963

Conditions	fitness
B. subtilis 168 [5], first compound 0.002 µg/mL, partner 1.25 µg/mL	0.964
B. subtilis 168 [5], first compound 0.002 µg/mL, partner 2.5 µg/mL	0.922
B. subtilis 168 [5], first compound 0.002 µg/mL, partner 5 µg/mL	0.725
B. subtilis 168 [5], first compound 0.004 µg/mL, partner 1.25 µg/mL	0.917
B. subtilis 168 [5], first compound 0.004 µg/mL, partner 2.5 µg/mL	0.864
B. subtilis 168 [5], first compound 0.004 µg/mL, partner 5 µg/mL	0.747
B. subtilis 168 [5], first compound 0.008 µg/mL, partner 1.25 µg/mL	0.861
B. subtilis 168 [5], first compound 0.008 µg/mL, partner 2.5 µg/mL	0.836
B. subtilis 168 [5], first compound 0.008 µg/mL, partner 5 µg/mL	0.665
S. aureus DSM 20231 [8], first compound 0.0156 µg/mL, partner 1.25 µg/mL	0.909
S. aureus DSM 20231 [8], first compound 0.0156 µg/mL, partner 2.5 µg/mL	0.892
S. aureus DSM 20231 [8], first compound 0.0156 µg/mL, partner 5 µg/mL	0.865
S. aureus DSM 20231 [8], first compound 0.0312 µg/mL, partner 1.25 µg/mL	0.704
S. aureus DSM 20231 [8], first compound 0.0312 µg/mL, partner 2.5 µg/mL	0.688
S. aureus DSM 20231 [8], first compound 0.0312 µg/mL, partner 5 µg/mL	0.63
S. aureus DSM 20231 [8], first compound 0.0625 µg/mL, partner 1.25 µg/mL	0.466
S. aureus DSM 20231 [8], first compound 0.0625 µg/mL, partner 2.5 µg/mL	0.599
S. aureus DSM 20231 [8], first compound 0.0625 µg/mL, partner 5 µg/mL	0.498
S. aureus Newman [6], first compound 0.0156 µg/mL, partner 1.25 µg/mL	0.792
S. aureus Newman [6], first compound 0.0156 µg/mL, partner 2.5 µg/mL	0.779
S. aureus Newman [6], first compound 0.0156 µg/mL, partner 5 µg/mL	0.795
S. aureus Newman [6], first compound 0.0312 µg/mL, partner 2.5 µg/mL	0.688
S. aureus Newman [6], first compound 0.0312 µg/mL, partner 5 µg/mL	0.687
S. aureus Newman [6], first compound 0.0625 µg/mL, partner 2.5 µg/mL	0.604
S. aureus Newman [6], first compound 0.0625 µg/mL, partner 5 µg/mL	0.587
S. pneumoniae D39V [7], first compound 0.01 µg/mL, partner 1.5 µg/mL	0.986
S. pneumoniae D39V [7], first compound 0.01 µg/mL, partner 3 µg/mL	0.986
S. pneumoniae D39V [7], first compound 0.01 µg/mL, partner 6 µg/mL	0.96
S. pneumoniae D39V [7], first compound 0.02 µg/mL, partner 1.5 µg/mL	0.939
S. pneumoniae D39V [7], first compound 0.02 µg/mL, partner 3 µg/mL	0.961
S. pneumoniae D39V [7], first compound 0.02 µg/mL, partner 6 µg/mL	0.928
S. pneumoniae D39V [7], first compound 0.04 µg/mL, partner 3 µg/mL	0.538
S. pneumoniae D39V [7], first compound 0.04 µg/mL, partner 6 µg/mL	0.483

fitness, B. subtilis 168 [5], one replicate
Conditions	first compound 0.075 µg/mL	first compound 0.15 µg/mL	first compound 0.3 µg/mL
partner 1.25 µg/mL	0.512	0.0497	0.0541
partner 2.5 µg/mL	0.326	0.054	0.0573
partner 5 µg/mL	0.0786	0.0366	0.0407

Cc1onc(-c2ccccc2)c1C(=O)N[C@@H]1C(=O)N2[C@@H]1SC(C)(C)[C@@H]2C(=O)O [Oxacillin] + Cc1cc(NS(=O)(=O)c2ccc(N)cc2)no1 [Sulfamethoxazol]
Conditions	Bliss interaction score
B. subtilis 168 [1]	0.0542
S. aureus DSM 20231 [4]	-0.0464
S. aureus Newman [2]	-0.0519
S. pneumoniae D39V [3]	0.0796

fitness
Conditions	partner 1 µg/mL	partner 2 µg/mL	partner 4 µg/mL
B. subtilis 168 [5], first compound 0.002 µg/mL	0.996	0.968	≥ 1
B. subtilis 168 [5], first compound 0.004 µg/mL	0.988	0.947	0.984
B. subtilis 168 [5], first compound 0.008 µg/mL	0.93	0.929	0.915
S. aureus DSM 20231 [8], first compound 0.0156 µg/mL	0.795	0.865	0.866
S. aureus DSM 20231 [8], first compound 0.0312 µg/mL	0.636	0.65	0.719
S. aureus DSM 20231 [8], first compound 0.0625 µg/mL	0.469	0.462	0.485
S. aureus Newman [6], first compound 0.0156 µg/mL	0.748	0.686	–
S. aureus Newman [6], first compound 0.0312 µg/mL	0.758	0.688	–
S. aureus Newman [6], first compound 0.0625 µg/mL	0.63	0.624	0.556
S. pneumoniae D39V [7], first compound 0.01 µg/mL	0.954	0.961	0.966
S. pneumoniae D39V [7], first compound 0.02 µg/mL	0.888	0.904	0.915
S. pneumoniae D39V [7], first compound 0.04 µg/mL	0.273	0.32	0.395

one replicate
Conditions	fitness
B. subtilis 168 [5], first compound 0.0078 µg/mL, partner 0.5 µg/mL	0.943
B. subtilis 168 [5], first compound 0.0078 µg/mL, partner 1 µg/mL	0.864
B. subtilis 168 [5], first compound 0.0078 µg/mL, partner 2 µg/mL	0.896
B. subtilis 168 [5], first compound 0.0155 µg/mL, partner 0.5 µg/mL	0.997
B. subtilis 168 [5], first compound 0.0155 µg/mL, partner 1 µg/mL	0.755
B. subtilis 168 [5], first compound 0.0155 µg/mL, partner 2 µg/mL	0.877
B. subtilis 168 [5], first compound 0.031 µg/mL, partner 0.5 µg/mL	0.921
B. subtilis 168 [5], first compound 0.031 µg/mL, partner 1 µg/mL	0.9
B. subtilis 168 [5], first compound 0.031 µg/mL, partner 2 µg/mL	0.866
B. subtilis 168 [5], first compound 0.075 µg/mL, partner 1 µg/mL	0.49
B. subtilis 168 [5], first compound 0.075 µg/mL, partner 2 µg/mL	0.454
B. subtilis 168 [5], first compound 0.075 µg/mL, partner 4 µg/mL	0.529
B. subtilis 168 [5], first compound 0.15 µg/mL, partner 1 µg/mL	0.0391
B. subtilis 168 [5], first compound 0.15 µg/mL, partner 2 µg/mL	0.0283
B. subtilis 168 [5], first compound 0.15 µg/mL, partner 4 µg/mL	0.0224
B. subtilis 168 [5], first compound 0.3 µg/mL, partner 1 µg/mL	0.0079
B. subtilis 168 [5], first compound 0.3 µg/mL, partner 2 µg/mL	0.0431
B. subtilis 168 [5], first compound 0.3 µg/mL, partner 4 µg/mL	0.0098
S. aureus Newman [6], first compound 0.0156 µg/mL, partner 8 µg/mL	0.9
S. aureus Newman [6], first compound 0.0312 µg/mL, partner 8 µg/mL	0.845
S. aureus Newman [6], first compound 0.0625 µg/mL, partner 8 µg/mL	0.783

C[n+]1ccc(-c2cc[n+](C)cc2)cc1 [Paraquat] + CC1=C\[C@@H](O)CC(=O)Cc2nc(co2)C(=O)N2CCC=C2C(=O)O[C@H](C(C)C)[C@H](C)/C=C/C(=O)NC\C=C\1 [Virginiamycin M1]
Conditions	Bliss interaction score
B. subtilis 168 [1]	0.0473
S. aureus DSM 20231 [4]	0.0744
S. aureus Newman [2]	0.0334
S. pneumoniae D39V [3]	-0.0275

fitness
Conditions	first compound 1.25 µg/mL	first compound 1.5 µg/mL	first compound 2.5 µg/mL	first compound 3 µg/mL	first compound 5 µg/mL	first compound 6 µg/mL
B. subtilis 168 [5], partner 0.0625 µg/mL	0.951	–	0.934	–	0.819	–
B. subtilis 168 [5], partner 0.125 µg/mL	0.918	–	0.934	–	0.856	–
B. subtilis 168 [5], partner 0.25 µg/mL	0.93	–	0.95	–	0.893	–
S. aureus DSM 20231 [8], partner 0.0625 µg/mL	0.912	–	0.897	–	0.872	–
S. aureus DSM 20231 [8], partner 0.125 µg/mL	0.967	–	0.981	–	0.936	–
S. aureus DSM 20231 [8], partner 0.25 µg/mL	0.935	–	0.882	–	0.934	–
S. pneumoniae D39V [7], partner 0.5 µg/mL	–	0.987	–	0.988	–	0.991
S. pneumoniae D39V [7], partner 1 µg/mL	–	0.991	–	0.978	–	0.967
S. pneumoniae D39V [7], partner 2 µg/mL	–	0.937	–	0.93	–	0.897

fitness, one replicate
Conditions	first compound 1.25 µg/mL	first compound 1.5 µg/mL	first compound 2.5 µg/mL	first compound 3 µg/mL	first compound 5 µg/mL	first compound 6 µg/mL
S. aureus DSM 20231 [8], partner 0.5 µg/mL	0.831	–	0.901	–	0.858	–
S. aureus DSM 20231 [8], partner 1 µg/mL	0.781	–	0.848	–	0.898	–
S. aureus Newman [6], partner 0.0625 µg/mL	0.883	–	0.93	–	0.863	–
S. aureus Newman [6], partner 0.125 µg/mL	0.885	–	0.934	–	0.894	–
S. aureus Newman [6], partner 0.25 µg/mL	0.868	–	0.9	–	0.929	–
S. aureus Newman [6], partner 0.5 µg/mL	0.862	–	0.852	–	0.908	–
S. aureus Newman [6], partner 1 µg/mL	0.949	–	0.959	–	0.971	–
S. aureus Newman [6], partner 2 µg/mL	0.862	–	0.848	–	0.855	–
S. pneumoniae D39V [7], partner 0.15 µg/mL	–	≥ 1	–	≥ 1	–	0.975
S. pneumoniae D39V [7], partner 0.3 µg/mL	–	≥ 1	–	≥ 1	–	0.948
